Test results published in patent US11427548B2 (Arvinas Operations, Inc., priority 2015, dated 2022).
Where two headings read alike, the source gives them in different places.

Biological target: T1, Androgen Receptor (Homo sapiens, UniProt P10275)
T1 construct: endogenous in cells; host or cells: VCaP cells
T1 sequence (P10275 1-920): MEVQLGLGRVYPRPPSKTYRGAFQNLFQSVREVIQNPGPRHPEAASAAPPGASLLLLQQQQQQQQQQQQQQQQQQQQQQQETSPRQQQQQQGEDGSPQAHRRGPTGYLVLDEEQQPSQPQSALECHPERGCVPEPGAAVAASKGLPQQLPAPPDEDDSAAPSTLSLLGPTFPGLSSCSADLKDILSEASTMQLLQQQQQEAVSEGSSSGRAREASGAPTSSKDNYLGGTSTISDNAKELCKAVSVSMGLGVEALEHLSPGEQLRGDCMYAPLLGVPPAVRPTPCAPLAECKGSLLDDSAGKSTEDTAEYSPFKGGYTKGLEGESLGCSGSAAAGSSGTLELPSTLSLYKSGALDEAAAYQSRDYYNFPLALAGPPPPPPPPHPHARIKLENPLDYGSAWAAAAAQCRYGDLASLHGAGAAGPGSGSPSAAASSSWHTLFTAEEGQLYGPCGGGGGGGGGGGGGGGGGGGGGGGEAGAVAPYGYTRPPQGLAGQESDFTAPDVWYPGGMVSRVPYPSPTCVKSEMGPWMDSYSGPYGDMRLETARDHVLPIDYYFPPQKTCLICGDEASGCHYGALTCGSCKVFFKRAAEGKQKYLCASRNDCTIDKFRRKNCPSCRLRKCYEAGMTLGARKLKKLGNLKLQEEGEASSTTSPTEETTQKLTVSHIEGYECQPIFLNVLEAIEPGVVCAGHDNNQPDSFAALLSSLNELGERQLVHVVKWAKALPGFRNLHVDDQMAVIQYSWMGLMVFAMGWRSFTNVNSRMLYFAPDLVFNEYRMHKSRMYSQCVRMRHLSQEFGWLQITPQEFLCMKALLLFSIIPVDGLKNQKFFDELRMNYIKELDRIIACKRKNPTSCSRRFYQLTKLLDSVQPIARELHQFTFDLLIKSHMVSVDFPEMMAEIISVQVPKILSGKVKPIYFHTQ
Experiment: Androgen Receptor ELISA assay (PathScan AR ELISA) in VCaP cells: AR degradation, Dmax and DC50
Assay type: cell-based
Procedure, shortened: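 VCaP cells in phenol red-free RPMI with 5% charcoal-stripped FBS were grown at least 3 days, then given compound as 7 half-log doses in 0.1% DMSO with 0.1 nM R1881 for 24 h. Lysates went into a sandwich AR ELISA with TMB read at 450 nm.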

[1] = VCaP cells; Table 36; read-out: VCaP DC50
[2] = VCaP, VCaP cells; Table 36; read-out: VCaP Dmax (%)

Row | SMILES | DC50 [1] [nM] | Dmax [2] [%] | Dmax (VCaP, read-out: VCaP Dmax (%)) [%] | DC50 (read-out: VCaP DC50; VCaP cells; Table 36) [nM]
1 | CC(C)[C@H](OCCN1CCN(c2ccc(C(=O)N[C@H]3C(C)(C)[C@H](Oc4ccc(C#N)c(Cl)c4)C3(C)C)cn2)CC1)C(=O)N[C@@H](C)C(=O)N1C[C@H](O)C[C@H]1C(=O)NCc1ccc(Cl)cc1 [Example 731, N-((1r,3r)-3-(3-chloro-4-cyanophenoxy)-2,2,4,4-tetramethylcyclobutyl)-6-(4-(2-(((S)-1-(((S)-1-((2S,4R)-2-((4-chlorobenzyl)carbamoyl)-4-hydroxypyrrolidin-1-yl)-1-oxopropan-2-yl)amino)-3-methyl-1-oxobutan-2-yl)oxy)ethyl)piperazin-1-yl)nicotinamide] | > 501 | < 25 | – | –
2 | CC(=O)N[C@H](C(=O)N1C[C@H](O)C[C@H]1C(=O)N[C@@H](C)c1ccc(-c2scnc2C)cc1)[C@@H](C)OCCCN(C)CCc1ccc(C(=O)N[C@H]2C(C)(C)[C@H](Oc3ccc(C#N)c(Cl)c3)C2(C)C)cc1 [Example 734, (2S,4R)-1-(N-acetyl-O-(3-((4-(((1r,3r)-3-(3-chloro-4-cyanophenoxy)-2,2,4,4-tetramethylcyclobutyl)carbamoyl)phenethyl)(meth-yl)amino)propyl)-L-threonyl)-4-hydroxy-N-((S)-1-(4-(4-methylthiazol-5-yl)phenyl)ethyl)pyrrolidine-2-carboxamide] | > 501 | < 25 | – | –
3 | Cc1cc(C(C(=O)N2C[C@H](O)C[C@H]2C(=O)NCc2ccc(Cl)cc2OCCOCCOCCOc2ccc(N3C(=S)N(c4ccc(C#N)c(C(F)(F)F)c4)C(=O)C3(C)C)cc2)C(C)C)on1 (stereo partly drawn) [Example 735, (2S,4R)-N-(4-chloro-2-(2-(2-(2-(4-(3-(4-cyano-3-(trifluoromethyl)phenyl)-5,5-dimethyl-4-oxo-2-thioxoimidazolidin-1-yl)phenoxy)ethoxy)eth-oxy)ethoxy)benzyl)-4-hydroxy-1-(3-methyl-2-(3-methylisoxazol-5-yl)butanoyl)pyrrolidine-2-carboxamide] | – | – | < 25 | > 501
4 | CC(C)(C)[C@H](NC(=O)COCCN1CCN(c2ccc(C(=O)N[C@H]3C(C)(C)[C@H](Oc4ccc(C#N)c(Cl)c4)C3(C)C)cn2)CC1)C(=O)N1C[C@H](O)C[C@H]1C(=O)NCc1ccc(Cl)cc1 [Example 737, N-((1r,3r)-3-(3-chloro-4-cyanophenoxy)-2,2,4,4-tetramethylcyclobutyl)-6-(4-(2-(2-(((S)-1-((2S,4R)-2-((4-chlorobenzyl)carbmaoyl)-4-hydroxypyrrolidin-1-yl)-3,3-dimethyl-1-oxobutan-2-yl)amino)-2-oxoethoxy)ethyl)pipera-zin-1-yl)nicotinamdie] | > 501 | 26 to 50 | – | –
5 | CC(C)C[C@@H](C(=O)N[C@@H](C)C(=O)N1C[C@H](O)C[C@H]1C(=O)N[C@@H](C)c1ccc(Cl)cc1)N1CCN(CCCc2ccc(C(=O)N[C@H]3C(C)(C)[C@H](Oc4ccc(C#N)c(Cl)c4)C3(C)C)cc2)CC1 [Example 738, (2S,4R)-1-(((S)-2-(4-(3-(4-(((1r,3r)-3-(3-chloro-4-cyanophenoxy)-2,2,4,4-tetramethylcyclobutyl)carbamoyl)phenyl)propyl)piperazin-1-yl)-4-methylpentanoyl)-L-alanyl)-N-((S)-1-(4-chlorophenyl)ethyl)-4-hydroxypyrrolidine-2-carboxamide] | > 501 | < 25 | – | –
6 | C[C@H](NC(=O)[C@@H]1C[C@@H](O)CN1C(=O)[C@@H](NC(=O)CN1CCN(CCCc2ccc(C(=O)N[C@H]3C(C)(C)[C@H](Oc4ccc(C#N)c(Cl)c4)C3(C)C)cc2)CC1)C(C)(C)C)c1ccc(Cl)cc1 [Example 739, (2S,4R)-1-((S)-2-(2-(4-(3-(4-(((1r,3r)-3-(3-chloro-4-cyanophenoxy)-2,2,4,4-tetramethylcyclobutyl)carbamoyl)phenyl)propyl)piperazin-1-yl)acetamido)-3,3-dimethylbutanoyl)-N-((S)-1-(4-chlorophenyl)ethyl)-4-hydroxypyrrolidine-2-carboxamide] | > 501 | < 25 | – | –
7 | Cc1ncsc1-c1ccc([C@H](C)NC(=O)[C@@H]2C[C@@H](O)CN2C(=O)[C@@H](NC(=O)CN2CCN(CC3(Cc4ccc(C(=O)N[C@H]5C(C)(C)[C@H](Oc6ccc(C#N)c(C(F)(F)F)c6)C5(C)C)cc4)COC3)CC2)C(C)(C)C)cc1 [Example 741, (2S,4R)-1-((S)-2-(2-(4-((3-(4-(((1r,3r)-3-(4-cyano-3-(trifluoromethyl)phenoxy)-2,2,4,4-tetramethylcyclobutyl)carbamoyl)benzyl)oxetan-3-yl)methyl)piperazin-1-yl)acetamido)-3,3-dimethylbutanoyl)-4-hydroxy-N-((S)-1-(4-(4-methylthiazol-5-yl)phenyl)ethyl)pyrrolidine-2-carboxamide] | < 50 | – | 51 to 70 | –

Further lines, with some results ahead:

Row | DC50 [1] [nM] | Dmax [2] [%] | SMILES | Dmax (VCaP, read-out: VCaP Dmax (%)) [%] | DC50 (read-out: VCaP DC50; VCaP cells; Table 36) [nM]
8 | > 501 | < 25 | Cc1ncsc1-c1ccc(C(C)NC(=O)[C@@H]2C[C@@H](O)CN2C(=O)[C@@H](N)[C@@H](C)OCCCN(C)CCc2ccc(C(=O)N[C@H]3C(C)(C)[C@H](Oc4ccc(C#N)c(Cl)c4)C3(C)C)cc2)cc1 (stereo partly drawn) [Example 730, (2S,4R)-1-(O-(3-((4-(((1r,3r)-3-(3-chloro-4-cyanophenoxy)-2,2,4,4-tetramethylcyclobutyl)carbamoyl)phenethyl)(meth-yl)amino)propyl)-L-threonyl)-4-hydroxy-N-((S)-1-(4-(4-methylthiazol-5-yl)phenyl)ethyl)pyrrolidine-2-carboxamide] | – | –
9 | < 50 | > 71 | Cc1ncsc1-c1ccc(CNC(=O)[C@@H]2C[C@@H](O)CN2C(=O)[C@H](C(C)C)N2Cc3ccccc3C2=O)c(OCCN2CCN(c3ccc(C(=O)N[C@H]4C(C)(C)[C@H](Oc5ccc(C#N)c(Cl)c5)C4(C)C)cn3)CC2)c1 [Example 732, N-((1r,3r)-3-(3-chloro-4-cyanophenoxy)-2,2,4,4-tetramethylcyclobutyl)-6-(4-(2-(2-(((2S,4R)-4-hydroxy-1-((S)-3-methyl-2-(1-oxoisoindolin-2-yl)butanoyl)pyrrolidine-2-carboxamido)methyl)-5-(4-methylthiazol-5-yl)phenoxy)ethyl)piper-azin-1-yl)nicotinamide] | – | –
10 | < 50 | > 71 | Cc1ncsc1-c1ccc(CNC(=O)[C@@H]2C[C@@H](O)CN2C(=O)[C@H](C(C)C)N2Cc3ccccc3C2=O)c(OCCN2CCN(c3ccc(C(=O)N[C@H]4C(C)(C)[C@H](Oc5ccc(C#N)c(C(F)(F)F)c5)C4(C)C)cn3)CC2)c1 [Example 733, N-((1r,3r)-3-(4-cyano-3-(trifluoromethyl)phenoxy)-2,2,4,4-tetramethylcyclobutyl)-6-(4-(2-(2-(((2S,4R)-4-hydroxy-1-((S)-3-methyl-2-(1-oxoisoindolin-2-yl)butanoyl)pyrrolidine-2-carboxamido)methyl)-5-(4-methylthiazol-5-yl)phenoxy)ethyl)piper-azin-1-yl)nicotinamide] | – | –
11 | < 50 | 51 to 70 | CC(C)(C)[C@H](NC(=O)COCCN1CCN(c2ccc(C(=O)N[C@H]3C(C)(C)[C@H](Oc4ccc(C#N)c(Cl)c4)C3(C)C)cn2)CC1)C(=O)N1C[C@H](O)C[C@H]1C(=O)NCc1ccc(C#N)cc1 [Example 736, N-((1r,3r)-3-(3-chloro-4-cyanophenoxy)-2,2,4,4-tetramethylcyclobutyl)-6-(4-(2-(2-(((S)-1-((2S,4R)-2-((4-cyanobenzyl)carbamoyl)-4-hydroxypyrrolidin-1-yl)-3,3-dimethyl-1-oxobutan-2-yl)amino)-2-oxoethoxy)ethyl)pipera-zin-1-yl)nicotinamide] | – | –
12 | < 50 | 51 to 70 | C[C@H](NC(=O)C1C[C@@H](O)CN1C(=O)[C@@H](NC(=O)COCCCCCc1ccc(C(=O)N[C@H]2C(C)(C)[C@H](Oc3ccc(C#N)c(Cl)c3)C2(C)C)cc1)C(C)(C)C)c1ccc(Cl)cc1 (stereo partly drawn) [Example 740, (2S,4R)-1-((S)-2-(2-((5-(4-(((1r,3r)-3-(3-chloro-4-cyanophenoxy)-2,2,4,4-tetramethylcyclobutyl)carbamoyl)phenyl)pentyl)oxy)acetamido)-3,3-dimethylbutanoyl)-N-((S)-1-(4-chlorophenyl)ethyl)-4-hydroxypyrroldiine-2-carboxamide] | – | –
